Where two headings read alike, the source gives them in different places.
Columns and labels:
[1] = tested on: HCV replicon in Huh7 cells; assay: HCV replicon cell-based assay; design: species or system HCV strain 1B; conditions: Hepatitis C virus, Huh-7; HCV replicon, Huh7 cells; read-out: EC50 range
[2] = biological target: HCV NS3/4A protease complex, BMS strain (UniProt P27958, C1454S/C1711G, species not given/STRAIN_BMS); assay: Recombinant HCV NS3/4A protease complex FRET peptide assay (BMS strain); type: biochemical, HCV genotype 1a
Procedure, shortened: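 Recombinant BMS-strain NS3/4A (His-tagged NS4A with three-lysine tail, E. coli) at 2-3 nM preincubated 1 min with compound, then 2 μM ester-linked NS4A/NS4B-based FRET peptide added. Fluorescence followed in real time ~15 min at 25° C. Percent inhibition from slope of linear fluorescence change versus no-compound control.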

[3] = read-out: IC50 range; NS3/4A BMS strain
[4] = NS3/4A BMS strain; read-out: IC50 range

SMILES | EC50 [1] [µM] | IC50 [2, 3] [µM] | IC50 [2, 4] [µM]
C=C[C@@H]1CC1(NC(=O)[C@@H]1CC(Oc2nccc3cc(OC)ccc23)CN1C(=O)[C@@H](NC(=O)NC(C)(C)CC)C(C)(C)C)C(=O)NS(=O)(=O)C1CC1 (stereo partly drawn) [Compound 76] | < 0.1 | < 0.1 | 
C=C[C@@H]1C[C@]1(NC(=O)[C@@H]1CC(Oc2nccc3cc(OC)ccc23)CN1C(=O)[C@@H](NC(=O)N(C)C(C)(C)C)C(C)(C)C)C(=O)NS(=O)(=O)C1CC1 (stereo partly drawn) [Compound 77] | 0.1 to 1 |  | < 0.1
C=C[C@@H]1C[C@]1(NC(=O)[C@@H]1CC(Oc2nccc3cc(OC)ccc23)CN1C(=O)[C@@H](NC(=O)N(C)OC)C(C)(C)C)C(=O)NS(=O)(=O)C1CC1 (stereo partly drawn) [Compound 78] | 1 to 10 |  | < 0.1
C=C[C@@H]1C[C@]1(NC(=O)[C@@H]1CC(Oc2nccc3cc(OC)ccc23)CN1C(=O)[C@@H](NC(=O)N(CC)CC)C(C)(C)C)C(=O)NS(=O)(=O)C1CC1 (stereo partly drawn) [Compound 79] | 0.1 to 1 |  | < 0.1
C=C[C@@H]1C[C@]1(NC(=O)[C@@H]1CC(Oc2nccc3cc(OC)ccc23)CN1C(=O)[C@@H](NC(N)=O)C(C)(C)C)C(=O)NS(=O)(=O)C1CC1 (stereo partly drawn) [Compound 80] | 1 to 10 |  | < 0.1
C=C[C@@H]1C[C@]1(NC(=O)[C@@H]1CC(Oc2nccc3cc(OC)ccc23)CN1C(=O)[C@@H](NC(=O)NC(C)(C)CC(C)(C)C)C(C)(C)C)C(=O)NS(=O)(=O)C1CC1 (stereo partly drawn) [Compound 81] | 0.1 to 1 |  | < 0.1
C=C[C@@H]1C[C@]1(NC(=O)[C@@H]1CC(Oc2nccc3cc(OC)ccc23)CN1C(=O)[C@@H](NC(=O)NC(C)(C)Cc1ccc(F)cc1)C(C)(C)C)C(=O)NS(=O)(=O)C1CC1 (stereo partly drawn) [Compound 82] | 0.1 to 1 |  | < 0.1
C=C[C@@H]1C[C@]1(NC(=O)[C@@H]1CC(Oc2nccc3cc(OC)ccc23)CN1C(=O)[C@@H](NC(=O)NC(C)(C)c1ccccc1)C(C)(C)C)C(=O)NS(=O)(=O)C1CC1 (stereo partly drawn) [Compound 83] | 0.1 to 1 |  | < 0.1
C=C[C@@H]1C[C@]1(NC(=O)[C@@H]1CC(Oc2nccc3cc(OC)ccc23)CN1C(=O)C([C@@H](C)CC)N(C)C(=O)OC(C)(C)C)C(=O)NS(=O)(=O)C1CC1 (stereo partly drawn) [Compound 84] | 0.1 to 1 |  | < 0.1
C=C[C@@H]1C[C@]1(NC(=O)[C@@H]1CC(Oc2nccc3cc(OC)ccc23)CN1C(=O)[C@H](C(C)C)N(C)C(=O)OC(C)(C)C)C(=O)NS(=O)(=O)C1CC1 (stereo partly drawn) [Compound 85] | 1 to 10 |  | 0.1 to 1
C=C[C@@H]1C[C@]1(NC(=O)[C@@H]1CC(Oc2nccc3cc(OC)ccc23)CN1C(=O)[C@H](CC(C)C)N(C)C(=O)OC(C)(C)C)C(=O)NS(=O)(=O)C1CC1 (stereo partly drawn) [Compound 86] | 10 to 100 |  | 1 to 10
C=C[C@@H]1C[C@]1(NC(=O)[C@@H]1CC(Oc2nccc3cc(OC)ccc23)CN1C(=O)[C@H](CCCC)N(C)C(=O)OC(C)(C)C)C(=O)NS(=O)(=O)C1CC1 (stereo partly drawn) [Compound 87] | 10 to 100 |  | 1 to 10
C=C[C@@H]1C[C@]1(NC(=O)[C@@H]1CC(Oc2nccc3cc(OC)ccc23)CN1C(=O)[C@H](CCC)N(C)C(=O)OC(C)(C)C)C(=O)NS(=O)(=O)C1CC1 (stereo partly drawn) [Compound 88] | 10 to 100 |  | 1 to 10
C=C[C@@H]1C[C@]1(NC(=O)[C@@H]1CC(Oc2nccc3cc(OC)ccc23)CN1C(=O)[C@@H](NC(=O)OC(C)(C)C)C(C)(C)O)C(=O)NS(=O)(=O)C1CC1 (stereo partly drawn) [Compound 89] | < 0.1 |  | < 0.1
C=C[C@@H]1C[C@]1(NC(=O)[C@@H]1CC(Oc2nccc3cc(OC)ccc23)CN1C(=O)[C@@H](NC(=O)OC(C)(C)C)[C@@H](C)O)C(=O)NS(=O)(=O)C1CC1 (stereo partly drawn) [Compound 91] | 0.1 to 1 |  | < 0.1
C=C[C@@H]1C[C@]1(NC(=O)[C@@H]1C[C@@H](Oc2nccc3cc(OC)ccc23)CN1C(=O)[C@@H](NC(=O)OC(C)(C)C)[C@@H](C)OC)C(=O)NS(=O)(=O)C1CC1 [Compound 92] | < 0.1 |  | < 0.1
C=C[C@@H]1C[C@]1(NC(=O)[C@@H]1C[C@@H](Oc2nccc3cc(OC)ccc23)CN1C(=O)[C@@H](NC(=O)OC(C)(C)C)[C@@H](C)OC(C)(C)C)C(=O)NS(=O)(=O)C1CC1 [Compound 93] | 0.1 to 1 |  | 0.1 to 1
C=C[C@@H]1C[C@]1(NC(=O)[C@@H]1C[C@@H](Oc2nccc3cc(OC)ccc23)CN1C(=O)[C@@H](NC(=O)OC(C)(C)C)[C@H](C)OC)C(=O)NS(=O)(=O)C1CC1 [Compound 94] | < 0.1 |  | < 0.1
C=C[C@@H]1C[C@]1(NC(=O)[C@@H]1C[C@@H](Oc2nccc3cc(OC)ccc23)CN1C(=O)[C@@H](NC(=O)OC(C)(C)C)[C@H](C)O)C(=O)NS(=O)(=O)C1CC1 [Compound 95] | 0.1 to 1 |  | < 0.1
C=C[C@@H]1C[C@]1(NC(=O)[C@@H]1C[C@@H](Oc2nccc3cc(OC)ccc23)CN1C(=O)[C@@H](NC(=O)OC(C)(C)C)[C@H](C)OCC)C(=O)NS(=O)(=O)C1CC1 [Compound 96] | < 0.1 | < 0.1 | 

SMILES | EC50 [1] [µM] | IC50 [2, 3] [µM] | IC50 [2, 4] [µM]
C=C[C@@H]1C[C@]1(NC(=O)[C@@H]1C[C@@H](Oc2nccc3cc(OC)ccc23)CN1C(=O)[C@@H](NC(=O)OC(C)(C)C)[C@H](C)OC(C)(C)C)C(=O)NS(=O)(=O)C1CC1 [Compound 97] | < 0.1 |  | < 0.1
C=C[C@@H]1C[C@]1(NC(=O)[C@@H]1C[C@@H](Oc2nccc3cc(OC)ccc23)CN1C(=O)[C@@H](N)[C@H](C)OC)C(=O)NS(=O)(=O)C1CC1 [Compound 100] | 1 to 10 | 0.1 to 1 | 
C=C[C@@H]1C[C@]1(NC(=O)[C@@H]1C[C@@H](Oc2nccc3cc(OC)ccc23)CN1C(=O)[C@@H](NC(=O)NC(C)(C)C)[C@H](C)OC)C(=O)NS(=O)(=O)C1CC1 [Compound 101] | < 0.1 | < 0.1 | 
C=C[C@@H]1C[C@]1(NC(=O)[C@@H]1C[C@@H](Oc2nccc3cc(OC)ccc23)CN1C(=O)[C@@H](NC(=O)NC(C)(C)CC)[C@H](C)OC)C(=O)NS(=O)(=O)C1CC1 [Compound 102] | < 0.1 |  | < 0.1
C=C[C@@H]1C[C@]1(NC(=O)[C@@H]1C[C@@H](Oc2nccc3cc(OC)ccc23)CN1C(=O)[C@@H](NC(=O)NC1CCCC1)[C@H](C)OC)C(=O)NS(=O)(=O)C1CC1 [Compound 103] | < 0.1 |  | < 0.1
C=C[C@@H]1C[C@]1(NC(=O)[C@@H]1C[C@@H](Oc2nccc3cc(OC)ccc23)CN1C(=O)[C@@H](NC(=O)OC1CCCC1)[C@H](C)OC)C(=O)NS(=O)(=O)C1CC1 [Compound 104] | < 0.1 | < 0.1 | 
C=C[C@@H]1C[C@]1(NC(=O)[C@@H]1C[C@@H](Oc2nccc3cc(OC)ccc23)CN1C(=O)[C@@H](NC(=O)OC(C)(C)CC)[C@H](C)OC)C(=O)NS(=O)(=O)C1CC1 [Compound 105] | < 0.1 | < 0.1 | 
C=C[C@@H]1C[C@]1(NC(=O)[C@@H]1C[C@@H](Oc2nccc3cc(OC)ccc23)CN1C(=O)[C@@H](NC(=O)OC(C)(C)C(F)(F)F)[C@H](C)OC)C(=O)NS(=O)(=O)C1CC1 [Compound 106] | < 0.1 |  | < 0.1
C=C[C@@H]1C[C@]1(NC(=O)[C@@H]1CC(Oc2nc(-c3ccccc3)cc3ccccc23)CN1C(=O)[C@@H](NC(=O)OC(C)(C)C)[C@H](C)O)C(=O)NS(=O)(=O)C1CC1 (stereo partly drawn) [Compound 107] | 0.1 to 1 | < 0.1 | 
C=C[C@@H]1C[C@]1(NC(=O)[C@@H]1CC(Oc2nc(-c3ccccc3)cc3ccccc23)CN1C(=O)[C@@H](NC(=O)OC(C)(C)C)[C@H](C)OC)C(=O)NS(=O)(=O)C1CC1 (stereo partly drawn) [Compound 108] | < 0.1 |  | < 0.1
C=C[C@@H]1C[C@]1(NC(=O)[C@@H]1CC(Oc2nc(-c3ccccc3)cc3ccccc23)CN1C(=O)[C@@H](NC(=O)OC(C)(C)C)[C@H](C)OCC)C(=O)NS(=O)(=O)C1CC1 (stereo partly drawn) [Compound 109] | < 0.1 |  | < 0.1
C=C[C@@H]1C[C@]1(NC(=O)[C@@H]1C[C@@H](Oc2nccc3cc(OC)ccc23)CN1C(=O)[C@@H](NC(=O)OC(C)(C)C)[C@@H](C)OCc1ccccc1)C(=O)NS(=O)(=O)C1CC1 [Compound 110] | 0.1 to 1 |  | < 0.1
C=C[C@@H]1C[C@]1(NC(=O)[C@@H]1C[C@@H](Oc2nccc3ccccc23)CN1C(=O)[C@@H](NC(=O)Oc1ccc(C)cc1)C(C)(C)C)C(=O)NS(=O)(=O)C1CC1 [Compound 120] | 0.1 to 1 |  | < 0.1
C=C[C@@H]1C[C@]1(NC(=O)[C@@H]1C[C@@H](Oc2nccc3ccccc23)CN1C(=O)[C@@H](NC(=O)Oc1ccccc1)C(C)(C)C)C(=O)NS(=O)(=O)C1CC1 [Compound 121] | 0.1 to 1 |  | < 0.1
C=C[C@@H]1C[C@]1(NC(=O)[C@@H]1C[C@@H](Oc2nccc3ccccc23)CN1C(=O)[C@@H](NC(=O)Oc1ccc(F)cc1)C(C)(C)C)C(=O)NS(=O)(=O)C1CC1 [Compound 122] | 0.1 to 1 |  | < 0.1
C=C[C@@H]1C[C@]1(NC(=O)[C@@H]1C[C@@H](Oc2nccc3ccccc23)CN1C(=O)[C@@H](NC(=O)Oc1ccc(OC)cc1)C(C)(C)C)C(=O)NS(=O)(=O)C1CC1 [Compound 123] | 0.1 to 1 |  | < 0.1
C=C[C@@H]1C[C@]1(NC(=O)[C@@H]1C[C@@H](Oc2nccc3ccccc23)CN1C(=O)[C@@H](NC(=O)OCCOC)C(C)(C)C)C(=O)NS(=O)(=O)C1CC1 [Compound 124] | 1 to 10 |  | 0.1 to 1
C=C[C@@H]1C[C@]1(NC(=O)[C@@H]1C[C@@H](Oc2nccc3ccccc23)CN1C(=O)[C@@H](NC(=O)OCC(C)(C)C)C(C)(C)C)C(=O)NS(=O)(=O)C1CC1 [Compound 125] | < 0.1 |  | < 0.1
C=C[C@@H]1C[C@]1(NC(=O)[C@@H]1C[C@@H](Oc2nccc3ccccc23)CN1C(=O)[C@@H](NC(=O)OCCF)C(C)(C)C)C(=O)NS(=O)(=O)C1CC1 [Compound 126] | 0.1 to 1 |  | < 0.1

From patent US7915291B2, “Hepatitis C virus inhibitors” (Bristol-Myers Squibb Company, priority 2002, dated 2011)
